This is an account of results in patent US20100330177A1, “PHARMACEUTICAL COMPOSITIONS OF A COMBINATION OF METFORMIN AND A DIPEPTIDYL PEPTIDASE-IV INHIBITOR” (Merck Sharp & Dohme Corp., priority 2009, published 2010).

One data set deals with Type 2 diabetes. Conditions: oral administration, human Type 2 diabetics; cited from earlier work.
Data set [1] is described as follows: in vitro dissolution profile of sitagliptin phosphate from the drug film layer. Type of data set: physicochemical. Conditions: FIG. 2. From the text: FIG. 2 is a graph showing in vitro dissolution profiles for sitagliptin phosphate from the drug film layer in a pharmaceutical composition of the present invention compared to sitagliptin phosphate in JANUMET™ which is a marketed fixed-dose combination of immediate-release metformin hydrochloride and immediate-release sitagliptin phosphate.

Structures can show the parent of a compound that is named as a salt.

On to `Cn1c(=O)cc(N2CCC[C@@H](N)C2)n(Cc2ccccc2C#N)c1=O` [alogliptin], for which, in the data set with Type 2 diabetes, the “effect on fasting glucose, postprandial glucose excursion and HbA1c” value (from here on “effect on fasting glucose”) was “reduce fasting glucose and postprandial glucose excursion in association with significantly reduced HbA1c levels”. Turning to `N[C@@H](CC(=O)N1CCn2c(nnc2C(F)(F)F)C1)Cc1cc(F)c(F)cc1F` [sitagliptin phosphate, dihydrogenphosphate salt of (2R)-4-oxo-4-[3-(trifluoromethyl)-5,6-dihydro[1,2,4]triazolo[4,3-a]pyrazin-7(8H)-yl]-1-(2,4,5-trifluorophenyl)butan-2-amine], the “dissolution compared with sitagliptin phosphate in JANUMET” value in data set [1] (sitagliptin phosphate from the drug film layer vs marketed immediate-release fixed-dose combination) is listed as “comparable to that of sitagliptin phosphate in JANUMET™”. The “time to complete dissolution” value in data set [1] (sitagliptin phosphate from the immediate-release drug film layer of the composition) is ≤ 30 min. Consider `N[C@@H](CC(=O)N1CCn2c(nnc2C(F)(F)F)C1)Cc1cc(F)c(F)cc1F` [sitagliptin, (2R)-4-oxo-4-[3-(trifluoromethyl)-5,6-dihydro[1,2,4]triazolo[4,3-a]pyrazin-7(8H)-yl]-1-(2,4,5-trifluorophenyl)butan-2-amine], for which the “effect on fasting glucose” value with Type 2 diabetes is “reduce fasting glucose and postprandial glucose excursion in association with significantly reduced HbA1c levels”. For the compound `N#C[C@@H]1CCCN1C(=O)CNC12CC3CC(CC(O)(C3)C1)C2` [vildagliptin], in the data set on Type 2 diabetes, the “effect on fasting glucose” value was “reduce fasting glucose and postprandial glucose excursion in association with significantly reduced HbA1c levels”.
